Laboratory results as given in ChEMBL document CHEMBL1201862, “PubChem BioAssay data set” (2004).
Each block holds one compound with its values, some of them ahead of it. The source made the active and inactive calls.

Legend:
Kallikrein-7 = Kallikrein-7 (Homo sapiens, UniProt P49862); test: Fluorescence Intensity-based biochemical primary high throughput dose response assay to identify activators of kallikrein-7 (K7) zymogen.
[1] = IC50 of Artemis nuclease activity blockers – biochemical, fluorescence intensity, dose response (AID 720701); format: functional;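 also: Artemis endonuclease enzyme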
Caspase-3 = biological target: T1, Caspase-3 (Homo sapiens, UniProt P42574); format: functional;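 also: Dose-response selectivity test against caspase-3 for candidate inhibitors of sentrin-specific proteases (SENPs)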
T1 sequence (P42574 whole entry): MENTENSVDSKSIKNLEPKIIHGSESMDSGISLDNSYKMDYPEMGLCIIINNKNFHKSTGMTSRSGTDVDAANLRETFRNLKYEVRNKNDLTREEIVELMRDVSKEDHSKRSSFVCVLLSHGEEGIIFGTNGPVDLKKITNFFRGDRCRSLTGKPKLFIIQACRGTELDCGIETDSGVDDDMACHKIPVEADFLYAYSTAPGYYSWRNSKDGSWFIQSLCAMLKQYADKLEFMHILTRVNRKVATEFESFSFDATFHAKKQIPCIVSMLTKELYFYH

[2] = biological target: T2, Sentrin-specific protease 7 (Homo sapiens, UniProt Q9BQF6); format: functional;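 also: Luminescence-based dose-response confirmation of ultra-high-throughput screening hits, measuring inhibition of SENP7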
T2 sequence (Q9BQF6 whole entry): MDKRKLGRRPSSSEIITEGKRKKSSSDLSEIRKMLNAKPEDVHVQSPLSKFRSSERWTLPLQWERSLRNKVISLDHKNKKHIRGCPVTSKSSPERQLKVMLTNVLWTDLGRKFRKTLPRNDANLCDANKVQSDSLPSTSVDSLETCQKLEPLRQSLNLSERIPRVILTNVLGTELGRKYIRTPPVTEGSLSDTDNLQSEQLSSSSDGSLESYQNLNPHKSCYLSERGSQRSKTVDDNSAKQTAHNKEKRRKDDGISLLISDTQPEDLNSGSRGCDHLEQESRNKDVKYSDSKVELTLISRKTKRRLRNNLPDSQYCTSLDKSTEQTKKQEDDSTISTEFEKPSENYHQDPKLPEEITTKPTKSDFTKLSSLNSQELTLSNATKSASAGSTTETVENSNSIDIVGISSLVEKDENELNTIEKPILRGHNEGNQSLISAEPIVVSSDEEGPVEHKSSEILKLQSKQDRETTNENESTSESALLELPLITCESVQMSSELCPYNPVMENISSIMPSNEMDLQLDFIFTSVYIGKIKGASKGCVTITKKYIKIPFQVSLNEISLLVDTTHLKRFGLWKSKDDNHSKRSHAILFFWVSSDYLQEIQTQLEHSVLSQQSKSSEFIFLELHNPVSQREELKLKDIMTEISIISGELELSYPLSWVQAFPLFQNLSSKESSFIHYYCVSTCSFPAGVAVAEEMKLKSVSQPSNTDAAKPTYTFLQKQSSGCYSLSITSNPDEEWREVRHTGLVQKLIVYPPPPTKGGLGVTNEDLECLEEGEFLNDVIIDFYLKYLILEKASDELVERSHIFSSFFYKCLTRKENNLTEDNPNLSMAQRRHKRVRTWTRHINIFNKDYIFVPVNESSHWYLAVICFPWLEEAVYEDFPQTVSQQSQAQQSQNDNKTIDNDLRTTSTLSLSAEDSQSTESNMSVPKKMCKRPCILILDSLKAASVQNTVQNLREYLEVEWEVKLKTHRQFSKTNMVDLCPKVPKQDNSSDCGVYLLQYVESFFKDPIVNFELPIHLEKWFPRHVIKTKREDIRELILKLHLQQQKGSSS

[3] = biological target: T3, Sentrin-specific protease 6 (Homo sapiens, UniProt Q9GZR1); format: functional;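 also: Luminescence-based dose-response confirmatory assay of SENP6 inhibition, following up an ultra-high-throughput screen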
T3 sequence (Q9GZR1 whole entry): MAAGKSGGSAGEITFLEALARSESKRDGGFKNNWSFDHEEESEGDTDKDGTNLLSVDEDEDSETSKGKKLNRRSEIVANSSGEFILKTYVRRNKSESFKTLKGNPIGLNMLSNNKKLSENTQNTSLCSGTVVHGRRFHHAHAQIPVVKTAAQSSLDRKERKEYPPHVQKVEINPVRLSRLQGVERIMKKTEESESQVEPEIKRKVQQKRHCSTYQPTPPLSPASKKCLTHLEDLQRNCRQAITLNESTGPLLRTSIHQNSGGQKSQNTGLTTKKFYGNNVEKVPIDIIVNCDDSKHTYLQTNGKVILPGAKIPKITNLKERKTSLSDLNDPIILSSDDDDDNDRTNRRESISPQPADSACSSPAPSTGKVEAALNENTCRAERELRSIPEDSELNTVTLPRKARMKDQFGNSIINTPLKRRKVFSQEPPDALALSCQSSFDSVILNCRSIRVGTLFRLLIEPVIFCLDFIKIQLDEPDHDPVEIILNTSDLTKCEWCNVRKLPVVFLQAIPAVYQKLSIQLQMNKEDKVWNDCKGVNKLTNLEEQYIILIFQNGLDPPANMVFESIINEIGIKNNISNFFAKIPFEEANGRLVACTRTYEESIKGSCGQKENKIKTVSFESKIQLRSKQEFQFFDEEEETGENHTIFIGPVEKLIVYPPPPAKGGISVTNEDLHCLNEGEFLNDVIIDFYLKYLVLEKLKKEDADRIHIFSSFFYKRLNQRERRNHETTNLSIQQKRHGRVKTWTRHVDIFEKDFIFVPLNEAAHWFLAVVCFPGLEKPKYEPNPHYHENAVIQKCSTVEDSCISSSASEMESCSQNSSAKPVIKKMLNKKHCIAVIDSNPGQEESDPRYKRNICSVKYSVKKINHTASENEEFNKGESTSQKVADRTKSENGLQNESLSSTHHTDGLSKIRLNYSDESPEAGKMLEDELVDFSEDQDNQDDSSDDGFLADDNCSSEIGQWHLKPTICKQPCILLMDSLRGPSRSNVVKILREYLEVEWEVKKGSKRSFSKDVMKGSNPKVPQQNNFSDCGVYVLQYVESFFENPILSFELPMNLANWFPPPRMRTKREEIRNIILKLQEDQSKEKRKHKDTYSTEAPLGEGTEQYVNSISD

[4] = biological target: T4, Sentrin-specific protease 8 (Homo sapiens, UniProt Q96LD8); format: functional;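 also: luminescence read-out of SENP8 inhibition, dose-response confirmation following an ultra-high-throughput screen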
T4 sequence (Q96LD8 whole entry): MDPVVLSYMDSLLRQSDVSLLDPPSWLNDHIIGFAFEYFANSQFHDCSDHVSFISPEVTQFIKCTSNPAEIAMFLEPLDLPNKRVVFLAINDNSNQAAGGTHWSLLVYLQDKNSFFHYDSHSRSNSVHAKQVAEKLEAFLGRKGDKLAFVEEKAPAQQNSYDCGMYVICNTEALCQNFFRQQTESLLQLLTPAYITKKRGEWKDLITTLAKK

cells [5] = test: cells
[6] = biological target: T5, Oxysterols receptor LXR-beta (Homo sapiens, UniProt P55055); format: functional, cell-based;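 also: agonist activity at LXR measured by a cell-based luminescence readout across a dose range, run as a counterscreen for daf-12 agonists; HEK293 cells with Gal4-LXR fusion and GAL4-driven luciferase reporter; potency for activation of Gal4-LXR reporter so compounds are agonists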
T5 sequence (P55055 whole entry): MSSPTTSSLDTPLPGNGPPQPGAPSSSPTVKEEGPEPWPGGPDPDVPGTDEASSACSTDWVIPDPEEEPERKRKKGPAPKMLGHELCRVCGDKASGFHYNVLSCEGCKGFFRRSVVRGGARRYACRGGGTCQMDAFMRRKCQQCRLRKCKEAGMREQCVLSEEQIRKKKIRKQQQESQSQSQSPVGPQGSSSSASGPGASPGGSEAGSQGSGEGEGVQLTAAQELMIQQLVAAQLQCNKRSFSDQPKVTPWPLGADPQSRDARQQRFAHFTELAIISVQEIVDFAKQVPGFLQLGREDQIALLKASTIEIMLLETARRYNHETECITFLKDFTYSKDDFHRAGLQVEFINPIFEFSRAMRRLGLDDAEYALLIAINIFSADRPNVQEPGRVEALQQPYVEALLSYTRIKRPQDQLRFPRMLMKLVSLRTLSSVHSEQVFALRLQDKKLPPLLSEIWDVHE

[7] = biological target: 1-phosphatidylinositol 4,5-bisphosphate phosphodiesterase gamma-1 (Homo sapiens, UniProt P19174); test: Counterscreen for inhibitors of phospholipase C isozymes (PLC-B3): Fluorescence-based biochemical high throughput dose response assay to identify inhibitors of phospholipase C isozymes (PLC-gamma1).
[8] = biological target: 1-phosphatidylinositol 4,5-bisphosphate phosphodiesterase beta-3 (Homo sapiens, UniProt Q01970); test: Fluorescence-based biochemical high throughput dose response assay to identify inhibitors of phospholipase C isozymes (PLC-B3).
cells [9] = details: HEK293;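 also: cells exposed to compound for 48 hours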
Protein skinhead-1 = biological target: T6, Protein skinhead-1 (Caenorhabditis elegans, UniProt P34707); format: functional
T6 sequence (P34707 whole entry): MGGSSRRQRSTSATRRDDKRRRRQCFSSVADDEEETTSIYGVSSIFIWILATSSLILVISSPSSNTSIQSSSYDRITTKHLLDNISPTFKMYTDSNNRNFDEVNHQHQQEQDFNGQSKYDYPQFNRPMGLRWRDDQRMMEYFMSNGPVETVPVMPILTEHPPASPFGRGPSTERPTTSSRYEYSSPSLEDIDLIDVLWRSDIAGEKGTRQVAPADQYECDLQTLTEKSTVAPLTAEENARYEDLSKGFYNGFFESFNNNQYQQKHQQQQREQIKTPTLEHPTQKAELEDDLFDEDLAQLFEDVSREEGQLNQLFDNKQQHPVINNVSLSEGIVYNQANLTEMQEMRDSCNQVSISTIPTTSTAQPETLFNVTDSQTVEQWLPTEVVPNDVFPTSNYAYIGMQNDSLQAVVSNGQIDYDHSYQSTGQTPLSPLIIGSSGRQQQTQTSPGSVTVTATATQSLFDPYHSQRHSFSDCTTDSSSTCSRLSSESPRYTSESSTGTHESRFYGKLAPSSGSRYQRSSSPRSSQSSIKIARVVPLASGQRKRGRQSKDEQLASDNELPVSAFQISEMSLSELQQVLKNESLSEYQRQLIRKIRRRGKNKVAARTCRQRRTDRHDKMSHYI

Paired box protein Pax-8 = Paired box protein Pax-8 (Homo sapiens, UniProt Q06710); test: PAX8 transcriptional activity inhibition in RMG-I – RMG-I cells, luciferase, cherry-pick, dose response (AID 687027); format: functional, cell-based;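 also: luciferase reporter driven by Pax8 target thyroperoxidase promoter measured by SteadyGlo luminescence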
[10] = OVCAR8 cell viability loss – plate reader, dry powder samples, PAX8 project, dose response (AID 743197); format: functional, cell-based; details: OVCAR-8
[11] = A2780 cell killing – plate reader, dry powder samples, cytotoxicity control, dose response (AID 743046); format: functional, cell-based
[12] = OVCAR-3 cell viability loss – plate reader, dry powder samples, PAX8 inhibitor project, dose response (AID 743044); format: functional, cell-based
HEK293 = test: viability loss in HEK293T cells – cell-based, ATP luminescence, cherry-pick samples, cytotoxicity control, dose response (AID 687005); format: functional; details: Homo sapiens;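 also: cells exposed to compound for 48 hours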
Cryptococcus neoformans = test: PubChem AID 686997; format: functional, organism-based
[13] = HEK293 Cytotoxicity Assay Measured in Cell-Based System Using Plate Reader - 7071-01_Inhibitor_Dose_CherryPick_Activity_Set2.; format: functional
Vasopressin V1b receptor = Vasopressin V1b receptor (Homo sapiens, UniProt P47901); test: Late-stage results from the probe development effort to identify antagonists of arginine vasopressin receptor 1a (AVPR1a): fluorescence-based cell-based dose response AVPR1b inhibition counterscreen assay.; format: functional
[14] = Late-stage results from the probe development effort to identify antagonists of arginine vasopressin receptor 1a (AVPR1a): fluorescence-based cell-based dose response AVPR1a inhibition assay.; format: functional
Vasopressin V2 receptor = Vasopressin V2 receptor (Homo sapiens, UniProt P30518); test: Late-stage results from the probe development effort to identify antagonists of arginine vasopressin receptor 1a (AVPR1a): fluorescence-based cell-based dose response AVPR2 inhibition counterscreen assay.; format: functional
[15] = Late-stage results from the probe development effort to identify antagonists of arginine vasopressin receptor 1a (AVPR1a): fluorescence-based cell-based dose response OXTR inhibition counterscreen assay.; format: functional
[16] = viability loss in HEK293 kidney cells – cell-based, cherry-picks, set 5, cytotoxicity control, dose response (AID 1053117); format: functional
[17] = viability loss in HepG2 hepatoma cells – cell-based, cherry-picks, set 5, cytotoxicity control, dose response (AID 1053118); format: functional
[18] = blockers of FN fibrillogenesis by fibroblasts – AH1F cells, Alexa488-FN fluorescence, cherry-picks, dose response (AID 1035475); format: functional, cell-based

Sequence of Paired box protein Pax-8 (Q06710 whole entry): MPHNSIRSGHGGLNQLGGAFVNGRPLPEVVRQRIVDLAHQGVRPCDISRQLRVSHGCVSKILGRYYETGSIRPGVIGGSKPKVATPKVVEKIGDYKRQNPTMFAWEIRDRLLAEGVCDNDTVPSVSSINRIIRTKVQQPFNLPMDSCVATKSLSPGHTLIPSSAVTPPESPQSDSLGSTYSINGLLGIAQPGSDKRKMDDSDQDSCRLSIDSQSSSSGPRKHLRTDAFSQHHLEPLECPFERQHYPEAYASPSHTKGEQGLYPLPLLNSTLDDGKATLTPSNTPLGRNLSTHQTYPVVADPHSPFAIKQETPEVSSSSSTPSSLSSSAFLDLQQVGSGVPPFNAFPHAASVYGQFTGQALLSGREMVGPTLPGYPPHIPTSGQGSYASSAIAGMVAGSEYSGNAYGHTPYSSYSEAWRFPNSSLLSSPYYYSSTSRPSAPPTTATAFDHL
Sequence of 1-phosphatidylinositol 4,5-bisphosphate phosphodiesterase gamma-1 (P19174 whole entry): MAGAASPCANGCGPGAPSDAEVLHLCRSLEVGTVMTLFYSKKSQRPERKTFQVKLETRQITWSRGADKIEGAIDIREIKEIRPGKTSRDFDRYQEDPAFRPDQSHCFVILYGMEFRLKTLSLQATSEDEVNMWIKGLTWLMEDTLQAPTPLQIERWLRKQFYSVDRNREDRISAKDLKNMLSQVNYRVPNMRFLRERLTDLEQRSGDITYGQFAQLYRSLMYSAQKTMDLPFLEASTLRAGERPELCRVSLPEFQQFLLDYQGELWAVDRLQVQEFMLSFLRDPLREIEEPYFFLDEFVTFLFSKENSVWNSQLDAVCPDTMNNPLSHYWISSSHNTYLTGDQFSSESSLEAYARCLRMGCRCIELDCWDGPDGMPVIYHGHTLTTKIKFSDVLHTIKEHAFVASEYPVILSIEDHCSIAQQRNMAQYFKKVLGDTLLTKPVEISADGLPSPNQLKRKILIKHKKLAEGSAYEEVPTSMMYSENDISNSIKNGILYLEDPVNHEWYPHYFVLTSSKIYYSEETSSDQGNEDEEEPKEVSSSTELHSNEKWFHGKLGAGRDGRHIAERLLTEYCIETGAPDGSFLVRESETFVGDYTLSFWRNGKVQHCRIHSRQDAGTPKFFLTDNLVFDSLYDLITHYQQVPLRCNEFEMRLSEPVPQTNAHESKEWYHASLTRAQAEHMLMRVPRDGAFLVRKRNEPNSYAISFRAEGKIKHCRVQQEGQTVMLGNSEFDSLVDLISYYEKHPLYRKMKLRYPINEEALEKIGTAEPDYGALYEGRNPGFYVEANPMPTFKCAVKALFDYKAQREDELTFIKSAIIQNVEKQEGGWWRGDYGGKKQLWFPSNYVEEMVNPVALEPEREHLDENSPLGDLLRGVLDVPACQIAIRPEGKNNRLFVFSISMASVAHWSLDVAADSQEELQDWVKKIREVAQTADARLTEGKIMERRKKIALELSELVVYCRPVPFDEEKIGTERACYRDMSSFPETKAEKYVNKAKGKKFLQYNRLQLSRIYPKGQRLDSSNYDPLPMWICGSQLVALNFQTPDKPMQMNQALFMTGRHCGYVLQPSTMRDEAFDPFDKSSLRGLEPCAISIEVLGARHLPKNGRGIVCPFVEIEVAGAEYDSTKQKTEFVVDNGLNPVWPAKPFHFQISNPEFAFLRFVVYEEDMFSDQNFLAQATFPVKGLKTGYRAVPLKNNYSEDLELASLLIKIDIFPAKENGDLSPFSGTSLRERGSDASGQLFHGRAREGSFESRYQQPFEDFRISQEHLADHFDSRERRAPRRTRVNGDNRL
Sequence of 1-phosphatidylinositol 4,5-bisphosphate phosphodiesterase beta-3 (Q01970 whole entry): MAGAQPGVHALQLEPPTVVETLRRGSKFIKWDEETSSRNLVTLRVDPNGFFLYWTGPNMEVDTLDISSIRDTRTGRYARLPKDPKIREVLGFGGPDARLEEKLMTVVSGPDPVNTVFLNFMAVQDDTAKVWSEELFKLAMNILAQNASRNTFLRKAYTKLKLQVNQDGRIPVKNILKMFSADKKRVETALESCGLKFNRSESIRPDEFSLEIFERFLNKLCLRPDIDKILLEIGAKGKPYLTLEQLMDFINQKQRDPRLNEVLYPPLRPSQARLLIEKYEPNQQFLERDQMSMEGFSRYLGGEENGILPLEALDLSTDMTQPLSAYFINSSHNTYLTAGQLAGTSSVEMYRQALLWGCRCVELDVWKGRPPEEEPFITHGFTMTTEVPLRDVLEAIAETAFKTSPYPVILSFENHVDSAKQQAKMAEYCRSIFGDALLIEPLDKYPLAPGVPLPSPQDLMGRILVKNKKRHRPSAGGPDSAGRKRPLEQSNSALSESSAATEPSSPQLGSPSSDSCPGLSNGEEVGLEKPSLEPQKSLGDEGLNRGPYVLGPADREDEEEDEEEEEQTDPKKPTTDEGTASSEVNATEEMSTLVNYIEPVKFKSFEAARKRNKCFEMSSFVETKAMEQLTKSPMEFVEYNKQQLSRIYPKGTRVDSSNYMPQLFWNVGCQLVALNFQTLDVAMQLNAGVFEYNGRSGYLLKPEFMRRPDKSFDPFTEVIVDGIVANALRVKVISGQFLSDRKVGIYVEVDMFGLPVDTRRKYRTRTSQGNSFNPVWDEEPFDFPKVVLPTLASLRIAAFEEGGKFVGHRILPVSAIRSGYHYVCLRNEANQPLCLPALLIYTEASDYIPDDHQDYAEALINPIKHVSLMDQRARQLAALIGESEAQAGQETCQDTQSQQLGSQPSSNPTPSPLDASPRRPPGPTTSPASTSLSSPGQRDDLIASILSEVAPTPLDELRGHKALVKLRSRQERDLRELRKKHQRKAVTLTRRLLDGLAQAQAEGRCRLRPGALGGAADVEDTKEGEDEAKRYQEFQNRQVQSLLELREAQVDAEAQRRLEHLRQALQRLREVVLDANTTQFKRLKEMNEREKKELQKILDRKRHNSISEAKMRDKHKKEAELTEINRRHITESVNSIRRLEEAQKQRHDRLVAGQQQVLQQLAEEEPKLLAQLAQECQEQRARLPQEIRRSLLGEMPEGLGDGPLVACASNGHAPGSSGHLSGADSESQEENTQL
Sequence of Vasopressin V1b receptor (P47901 whole entry): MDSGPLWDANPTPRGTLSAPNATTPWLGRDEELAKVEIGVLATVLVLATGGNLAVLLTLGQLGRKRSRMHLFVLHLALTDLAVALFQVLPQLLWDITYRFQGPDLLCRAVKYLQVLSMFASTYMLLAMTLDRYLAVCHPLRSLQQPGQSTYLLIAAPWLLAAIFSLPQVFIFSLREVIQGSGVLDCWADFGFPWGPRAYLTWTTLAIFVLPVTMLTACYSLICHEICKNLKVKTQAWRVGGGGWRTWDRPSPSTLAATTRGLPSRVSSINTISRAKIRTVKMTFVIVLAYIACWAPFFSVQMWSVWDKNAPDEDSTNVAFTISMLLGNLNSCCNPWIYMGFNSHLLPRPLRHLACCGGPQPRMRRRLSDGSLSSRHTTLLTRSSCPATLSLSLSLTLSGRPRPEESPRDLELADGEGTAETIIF
Sequence of Vasopressin V2 receptor (P30518 whole entry): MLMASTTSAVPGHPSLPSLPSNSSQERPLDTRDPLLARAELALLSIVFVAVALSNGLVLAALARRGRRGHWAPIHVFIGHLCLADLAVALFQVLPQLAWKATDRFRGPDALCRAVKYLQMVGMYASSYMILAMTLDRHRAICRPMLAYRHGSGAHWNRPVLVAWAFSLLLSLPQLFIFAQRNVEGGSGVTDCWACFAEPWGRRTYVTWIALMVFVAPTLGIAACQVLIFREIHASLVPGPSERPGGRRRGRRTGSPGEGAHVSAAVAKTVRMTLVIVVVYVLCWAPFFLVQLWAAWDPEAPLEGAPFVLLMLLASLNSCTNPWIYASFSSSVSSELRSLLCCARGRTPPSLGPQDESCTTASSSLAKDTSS
Sequence of Kallikrein-7 (P49862 whole entry): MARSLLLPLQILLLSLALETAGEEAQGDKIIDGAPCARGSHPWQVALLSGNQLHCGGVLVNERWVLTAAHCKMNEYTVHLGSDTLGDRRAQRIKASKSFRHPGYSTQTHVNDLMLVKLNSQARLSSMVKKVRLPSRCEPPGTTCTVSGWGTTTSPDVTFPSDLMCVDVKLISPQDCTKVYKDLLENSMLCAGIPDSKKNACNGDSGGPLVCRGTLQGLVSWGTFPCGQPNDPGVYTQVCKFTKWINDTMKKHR

EC50 (Kallikrein-7): > 69.5 µM (inactive)
Structure (SMILES): COc1ccc(-c2ccc3nnc(SCC(=O)NCC4CCCO4)n3n2)cc1 (stereo unspecified)

IC50 [1]: > 20 µM (inactive)
IC50 (Caspase-3): 17.4 µM (active)
IC50 [2]: 21.2 µM (active)
IC50 [3]: 12.3 µM (active)
Structure (SMILES): Brc1ccc(-c2cn3nc4c(nc3n2)CCCC4)cc1
IC50 [4]: 17.7 µM (active)

Structure (SMILES): C=CCc1c(O)c(CC)cc2c(C)cc(=O)oc12
AC50 (cells [5]): 0.903 µM (active)

EC50 [6]: > 67.5 µM (inactive)
Structure (SMILES): O=C(/C=C/c1ccccc1)N1CCC(c2ccccc2)C1 (stereo unspecified)

IC50 [7]: > 122 µM (inactive)
IC50 [8]: > 122 µM (inactive)
Structure (SMILES): Cc1c(N2C(=O)c3cccc4cccc(c34)C2=O)c(=O)n(-c2ccccc2)n1C

Structure (SMILES): Cc1cc2cc(CNC(=O)c3ccco3)ccc2n1C
AC50 (cells [9]): > 52 µM (inactive)
IC50 (Protein skinhead-1): 73.3 µM (inactive)

Structure (SMILES): C[C@@H]1CCCCO[C@H](CN(C)C(=O)c2ccccc2)[C@H](C)CN([C@@H](C)CO)C(=O)c2cc(NC(=O)Nc3ccc(C(F)(F)F)cc3)ccc2O1
AC50 (Paired box protein Pax-8): 6.57 µM (active)
AC50 [10]: 34.4 µM (active)
AC50 [11]: 64.1 µM (active)
AC50 [12]: 19.9 µM (active)

Structure (SMILES): COC(=O)C1=C(C)N(Cc2ccc(Br)cc2)C(=S)NC1c1ccccc1 (stereo unspecified)
AC50 (HEK293): 19.8 µM (active)
AC50 (Cryptococcus neoformans): 18.8 µM (active)
AC50 [13]: 19.8 µM (active)

Structure (SMILES): N#Cc1ccc(N2CCC(C(=O)N(CC3CC3)c3ccc(Cl)cc3)CC2)nc1
IC50 (Vasopressin V1b receptor): 25.7 µM (inactive)
IC50 [14]: 0.8 µM (active)
IC50 (Vasopressin V2 receptor): 30.2 µM (inactive)
IC50 [15]: 20.1 µM (inactive)

Structure (SMILES): CO[C@H]1CN(C)C(=O)c2ccc(NC(=O)Nc3cc(Cl)cc(Cl)c3)cc2OC[C@H](C)NC[C@@H]1C
AC50 [16]: 41.1 µM (active)
AC50 [17]: 30.9 µM (active)

Structure (SMILES): Cc1ccc(S(=O)(=O)N2CC[C@@H]3[C@H]2c2cc(-c4cccc(C(=O)N(C)C)c4)ccc2N[C@@H]3CO)cc1
AC50 [18]: 4.45 µM (active)
